In PMC7089538, “The effects of intra-stomach obestatin administration on intestinal contractility in neonatal piglets fed milk formula” (PLoS ONE, 2020):
Read-outs that look alike come from different tables or passages of the source. Marks after values point to notes of the source that are not given here. Where no end group is shown, it is not given here.

What was measured:
duodenum [1] = assay: ACh-stimulated or atropine-treated contractions; format: in vivo, piglets (Polish Landrace x Pietrain); settings: 6 days, duodenum strips, mean ± SEM
Description: (§1) Piglets' BW was recorded every morning. […] The protein concentration in the milk formula was 20%. […] The tissues were attached to isotonic transducers (Letica Scientific Instruments, Spain) under a load of 1.0 g that were coupled with a PowerLab recording system (ADInstruments, Sydney, Australia). […] The tissues were then washed and allowed to equilibrate. […] Half of randomly selected jejunal segments were pre-treated with atropine.

middle jejunum = assay: ACh-stimulated or atropine-treated contractions; format: in vivo, piglets (Polish Landrace x Pietrain); settings: 6 days, middle jejunum strips, mean ± SEM; for amplitude of atropine treated contractions: atropine pretreatment (ATR^-6)
Description: as §1

duodenum [2] = settings: duodenum strips; for EFS-evoked amplitude of contraction: 6 days, mean ± SEM
[3] = O10: obestatin 10 μg/kg BW intra-stomach every 8 h, ACh^-8 (10^−8 M, cumulative)
[4] = O10: obestatin 10 μg/kg BW intra-stomach every 8 h, ACh^-9 (10^−9 M, cumulative)
[5] = O15: obestatin 15 μg/kg BW intra-stomach every 8 h, ACh^-4 (10^−4 M, cumulative)
[6] = O15: obestatin 15 μg/kg BW intra-stomach every 8 h, ACh^-5 (10^−5 M, cumulative)
[7] = O15: obestatin 15 μg/kg BW intra-stomach every 8 h, ACh^-6 (10^−6 M, cumulative)
[8] = O15: obestatin 15 μg/kg BW intra-stomach every 8 h, ACh^-7 (10^−7 M, cumulative)
[9] = O15: obestatin 15 μg/kg BW intra-stomach every 8 h, ACh^-8 (10^−8 M, cumulative)
[10] = O15: obestatin 15 μg/kg BW intra-stomach every 8 h, ACh^-9 (10^−9 M, cumulative)

FNAPFDVGIKLSGAQYQQHGRAL-NH2 [obestatin]
amplitude of ACh stimulated contractions (duodenum [1]; [3]): 6.0 ± 0.8 mm | amplitude of ACh stimulated contractions (duodenum [1]; [4]): 5.9 ± 0.9 mm | amplitude of ACh stimulated contractions (duodenum [1]; [5]): 15.1 ± 0.4^b mm | amplitude of ACh stimulated contractions (duodenum [1]; [6]): 9.6 ± 0.6 mm | amplitude of ACh stimulated contractions (duodenum [1]; [7]): 6.7 ± 0.8 mm | amplitude of ACh stimulated contractions (duodenum [1]; [8]): 5.9 ± 0.6 mm | amplitude of ACh stimulated contractions (duodenum [1]; [9]): 5.4 ± 0.4 mm | amplitude of ACh stimulated contractions (duodenum [1]; [10]): 5.3 ± 0.5 mm | amplitude of ACh stimulated contractions (middle jejunum; O2: obestatin 2 μg/kg BW intra-stomach every 8 h, ACh^-4 (10^−4 M, cumulative)): 12.3 ± 1.0^a^b mm | amplitude of ACh stimulated contractions (middle jejunum; O2: obestatin 2 μg/kg BW intra-stomach every 8 h, ACh^-5 (10^−5 M, cumulative)): 8.0 ± 0.9 mm | amplitude of ACh stimulated contractions (middle jejunum; O2: obestatin 2 μg/kg BW intra-stomach every 8 h, ACh^-6 (10^−6 M, cumulative)): 6.3 ± 0.9^a^b mm | amplitude of ACh stimulated contractions (middle jejunum; O2: obestatin 2 μg/kg BW intra-stomach every 8 h, ACh^-7 (10^−7 M, cumulative)): 6.1 ± 0.8 mm | amplitude of ACh stimulated contractions (middle jejunum; O2: obestatin 2 μg/kg BW intra-stomach every 8 h, ACh^-8 (10^−8 M, cumulative)): 6.0 ± 0.7 mm | amplitude of atropine treated contractions (middle jejunum; O2: obestatin 2 μg/kg BW intra-stomach every 8 h): 0.97 ± 0.1^a^b mm | amplitude of ACh stimulated contractions (middle jejunum; O10: obestatin 10 μg/kg BW intra-stomach every 8 h, ACh^-4 (10^−4 M, cumulative)): 12.5 ± 0.9^b mm | amplitude of ACh stimulated contractions (middle jejunum; O10: obestatin 10 μg/kg BW intra-stomach every 8 h, ACh^-5 (10^−5 M, cumulative)): 10.1 ± 0.7 mm | amplitude of ACh stimulated contractions (middle jejunum; O10: obestatin 10 μg/kg BW intra-stomach every 8 h, ACh^-6 (10^−6 M, cumulative)): 7.0 ± 0.9^b mm | amplitude of ACh stimulated contractions (middle jejunum; O10: obestatin 10 μg/kg BW intra-stomach every 8 h, ACh^-7 (10^−7 M, cumulative)): 4.8 ± 0.9 mm | amplitude of ACh stimulated contractions (middle jejunum; [3]): 4.6 ± 0.9 mm | amplitude of ACh stimulated contractions (middle jejunum; [4]): 3.9 ± 0.8^a^b mm | amplitude of atropine treated contractions (middle jejunum; O10: obestatin 10 μg/kg BW intra-stomach every 8 h): 1.10 ± 0.2^b mm | amplitude of ACh stimulated contractions (middle jejunum; [5]): 13.7 ± 0.8^b mm | amplitude of ACh stimulated contractions (middle jejunum; [6]): 9.0 ± 0.8 mm | amplitude of ACh stimulated contractions (middle jejunum; [7]): 7.3 ± 0.8^b mm | amplitude of ACh stimulated contractions (middle jejunum; [8]): 6.8 ± 0.6 mm | amplitude of ACh stimulated contractions (middle jejunum; [9]): 6.7 ± 0.7 mm | amplitude of ACh stimulated contractions (middle jejunum; [10]): 6.6 ± 0.7^b mm | amplitude of atropine treated contractions (middle jejunum; O15: obestatin 15 μg/kg BW intra-stomach every 8 h): 1.20 ± 0.1^b mm | EFS-evoked amplitude of contraction (duodenum [2]; O2: obestatin 2 μg/kg BW intra-stomach every 8 h, Basal, EFS 0.5 Hz): 2.53 ± 0.31^a mm | EFS-evoked amplitude of contraction (duodenum [2]; O2: obestatin 2 μg/kg BW intra-stomach every 8 h, Basal, EFS 5 Hz): 2.78 ± 0.35^a mm | EFS-evoked amplitude of contraction (duodenum [2]; O2: obestatin 2 μg/kg BW intra-stomach every 8 h, Basal, EFS 50 Hz): 2.95 ± 0.28^a^c mm | EFS-evoked amplitude of contraction (duodenum [2]; O2: obestatin 2 μg/kg BW intra-stomach every 8 h, TTX 10^−6 M, EFS 0.5 Hz): 0.48 ± 0.11 mm | EFS-evoked amplitude of contraction (duodenum [2]; O2: obestatin 2 μg/kg BW intra-stomach every 8 h, TTX 10^−6 M, EFS 5 Hz): 0.54 ± 0.11 mm | EFS-evoked amplitude of contraction (duodenum [2]; O2: obestatin 2 μg/kg BW intra-stomach every 8 h, TTX 10^−6 M, EFS 50 Hz): 0.82 ± 0.21 mm | EFS-evoked amplitude of contraction (duodenum [2]; O10: obestatin 10 μg/kg BW intra-stomach every 8 h, Basal, EFS 0.5 Hz): 1.08 ± 0.26^b mm | EFS-evoked amplitude of contraction (duodenum [2]; O10: obestatin 10 μg/kg BW intra-stomach every 8 h, Basal, EFS 5 Hz): 1.25 ± 0.32^b mm | EFS-evoked amplitude of contraction (duodenum [2]; O10: obestatin 10 μg/kg BW intra-stomach every 8 h, Basal, EFS 50 Hz): 1.20 ± 0.29^a^d mm | EFS-evoked amplitude of contraction (duodenum [2]; O10: obestatin 10 μg/kg BW intra-stomach every 8 h, TTX 10^−6 M, EFS 0.5 Hz): 0.56 ± 0.16 mm | EFS-evoked amplitude of contraction (duodenum [2]; O10: obestatin 10 μg/kg BW intra-stomach every 8 h, TTX 10^−6 M, EFS 5 Hz): 0.59 ± 0.15 mm | EFS-evoked amplitude of contraction (duodenum [2]; O10: obestatin 10 μg/kg BW intra-stomach every 8 h, TTX 10^−6 M, EFS 50 Hz): 0.86 ± 0.22 mm | EFS-evoked amplitude of contraction (duodenum [2]; O15: obestatin 15 μg/kg BW intra-stomach every 8 h, Basal, EFS 0.5 Hz): 2.34 ± 0.30^a mm | EFS-evoked amplitude of contraction (duodenum [2]; O15: obestatin 15 μg/kg BW intra-stomach every 8 h, Basal, EFS 5 Hz): 2.74 ± 0.37^a mm | EFS-evoked amplitude of contraction (duodenum [2]; O15: obestatin 15 μg/kg BW intra-stomach every 8 h, Basal, EFS 50 Hz): 3.38 ± 0.36^b^c mm | EFS-evoked amplitude of contraction (duodenum [2]; O15: obestatin 15 μg/kg BW intra-stomach every 8 h, TTX 10^−6 M, EFS 0.5 Hz): 0.40 ± 0.09 mm | EFS-evoked amplitude of contraction (duodenum [2]; O15: obestatin 15 μg/kg BW intra-stomach every 8 h, TTX 10^−6 M, EFS 5 Hz): 0.46 ± 0.01 mm | EFS-evoked amplitude of contraction (duodenum [2]; O15: obestatin 15 μg/kg BW intra-stomach every 8 h, TTX 10^−6 M, EFS 50 Hz): 0.77 ± 0.22 mm | effect of obestatin on EFS-evoked contraction following pre-incubation with TTX (duodenum [2]; TTX 10^−6 M, responses similar to saline-treated preparations): the effects of obestatin were blocked
